PubChem BioAssay AID1259407 (Chemical Carcinogenesis Research Information System (CCRIS), 2018)
Calls of active or inactive are those of the source. How the calls were made is not given here.

Test system: CCRIS mutagenicity, Ames/micronucleus/aberration tests
Assay: CCRIS mutagenicity studies

Structure (SMILES): Cc1cc(-c2ccc(N)c(C)c2)ccc1N
- mutagenic call (End Point: IN VITRO CHROMOSOMAL ABERRATIONS, Test System: CHINESE HAMSTER OVARY CELLS, Metabolic Activation: NONE): active; positive
- mutagenic call (End Point: IN VITRO CHROMOSOMAL ABERRATIONS, Test System: CHINESE HAMSTER OVARY CELLS, Metabolic Activation: RAT, LIVER, S-9, AROCLOR 1254): active; positive
- mutagenic call (End Point: IN VITRO CHROMOSOMAL ABERRATIONS, Test System: CHL CELLS, Metabolic Activation: NONE): active; positive (structural changes)
- mutagenic call (End Point: IN VITRO CHROMOSOMAL ABERRATIONS, Test System: CHL CELLS, Metabolic Activation: RAT, LIVER, S-9, SODIUM PHENOBARBITAL AND 5,6-BENZOFLAVONE): inactive; negative; authors report equivocal results for structural changes at the highest
- mutagenic call (Test System: AMES SALMONELLA TYPHIMURIUM, Strain/Indicator: SV50, Metabolic Activation: NONE, Method: PREINCUBATION (PRIVAL METHOD)): inactive; negative
- mutagenic call (Test System: AMES SALMONELLA TYPHIMURIUM, Strain/Indicator: SV50, Metabolic Activation: RAT, LIVER, S-9, AROCLOR 1254, Method: STANDARD PLATE): inactive; negative
- mutagenic call (Test System: AMES SALMONELLA TYPHIMURIUM, Strain/Indicator: TA97, Metabolic Activation: HAMSTER, LIVER, S-9, AROCLOR 1254 (10%), Method: PREINCUBATION): inactive; negative
- mutagenic call (Test System: AMES SALMONELLA TYPHIMURIUM, Strain/Indicator: TA97, Metabolic Activation: HAMSTER, LIVER, S-9, AROCLOR 1254, Method: PREINCUBATION): inactive; negative
- mutagenic call (Test System: AMES SALMONELLA TYPHIMURIUM, Strain/Indicator: TA97, Metabolic Activation: NONE, Method: PREINCUBATION): inactive; negative
- mutagenic call (Test System: AMES SALMONELLA TYPHIMURIUM, Strain/Indicator: TA97, Metabolic Activation: RAT, LIVER, S-9, AROCLOR 1254 (10%), Method: PREINCUBATION): inactive; negative
- mutagenic call (Test System: AMES SALMONELLA TYPHIMURIUM, Strain/Indicator: TA97, Metabolic Activation: RAT, LIVER, S-9, AROCLOR 1254, Method: PREINCUBATION): inactive; negative
- mutagenic call (Test System: AMES SALMONELLA TYPHIMURIUM, Strain/Indicator: TA98(1,8-DNP6), Metabolic Activation: NONE, Method: STANDARD PLATE): inactive; negative
- mutagenic call (Test System: AMES SALMONELLA TYPHIMURIUM, Strain/Indicator: TA98(1,8-DNP6), Metabolic Activation: S-9, Method: STANDARD PLATE): active; positive
- mutagenic call (Test System: AMES SALMONELLA TYPHIMURIUM, Strain/Indicator: TA98, Metabolic Activation: HAMSTER, LIVER, S-9, AROCLOR 1254 (10%), Method: PREINCUBATION): active; positive
- mutagenic call (Test System: AMES SALMONELLA TYPHIMURIUM, Strain/Indicator: TA98, Metabolic Activation: HAMSTER, LIVER, S-9, AROCLOR 1254, Method: PREINCUBATION): active; positive
- mutagenic call (Test System: AMES SALMONELLA TYPHIMURIUM, Strain/Indicator: TA98, Metabolic Activation: NONE, Method: PREINCUBATION): inactive; negative
- mutagenic call (Test System: AMES SALMONELLA TYPHIMURIUM, Strain/Indicator: TA98, Metabolic Activation: NONE, Method: STANDARD PLATE): inactive; negative
- mutagenic call (Test System: AMES SALMONELLA TYPHIMURIUM, Strain/Indicator: TA98, Metabolic Activation: RAT LIVER S-9, AROCLOR 1254, Method: PREINCUBATION): active; positive
- mutagenic call (Test System: AMES SALMONELLA TYPHIMURIUM, Strain/Indicator: TA98, Metabolic Activation: RAT LIVER S-9, PHENOBARBITAL AND BETA-NAPHTHOFLAVONE, Method: PREINCUBATION): active; positive
- mutagenic call (Test System: AMES SALMONELLA TYPHIMURIUM, Strain/Indicator: TA98, Metabolic Activation: RAT, LIVER, S-9, AROCLOR 1254 (10%), Method: PREINCUBATION): active; positive
- mutagenic call (Test System: AMES SALMONELLA TYPHIMURIUM, Strain/Indicator: TA98, Metabolic Activation: RAT, LIVER, S-9, AROCLOR 1254, Method: PREINCUBATION): active; positive
- mutagenic call (Test System: AMES SALMONELLA TYPHIMURIUM, Strain/Indicator: TA98, Metabolic Activation: RAT, LIVER, S-9, AROCLOR 1254, Method: STANDARD PLATE): active; positive
- mutagenic call (Test System: AMES SALMONELLA TYPHIMURIUM, Strain/Indicator: TA98, Metabolic Activation: S-9, Method: STANDARD PLATE): active; positive
- mutagenic call (Test System: AMES SALMONELLA TYPHIMURIUM, Strain/Indicator: TA100, Metabolic Activation: HAMSTER, LIVER, S-9, AROCLOR 1254 (10%), Method: PREINCUBATION): inactive; negative
- mutagenic call (Test System: AMES SALMONELLA TYPHIMURIUM, Strain/Indicator: TA100, Metabolic Activation: HAMSTER, LIVER, S-9, AROCLOR 1254, Method: PREINCUBATION): inactive; negative
- mutagenic call (Test System: AMES SALMONELLA TYPHIMURIUM, Strain/Indicator: TA100, Metabolic Activation: NONE, Method: PREINCUBATION): inactive; negative
- mutagenic call (Test System: AMES SALMONELLA TYPHIMURIUM, Strain/Indicator: TA100, Metabolic Activation: NONE, Method: STANDARD PLATE): inactive; negative
- mutagenic call (Test System: AMES SALMONELLA TYPHIMURIUM, Strain/Indicator: TA100, Metabolic Activation: RAT LIVER S-9, AROCLOR 1254, Method: PREINCUBATION): inactive; negative
- mutagenic call (Test System: AMES SALMONELLA TYPHIMURIUM, Strain/Indicator: TA100, Metabolic Activation: RAT LIVER S-9, PHENOBARBITAL AND BETA-NAPHTHOFLAVONE, Method: PREINCUBATION): inactive; negative
- mutagenic call (Test System: AMES SALMONELLA TYPHIMURIUM, Strain/Indicator: TA100, Metabolic Activation: RAT, LIVER, S-9, AROCLOR 1254 (10%), Method: PREINCUBATION): inactive; negative
- mutagenic call (Test System: AMES SALMONELLA TYPHIMURIUM, Strain/Indicator: TA100, Metabolic Activation: RAT, LIVER, S-9, AROCLOR 1254, Method: PREINCUBATION): inactive; negative
- mutagenic call (Test System: AMES SALMONELLA TYPHIMURIUM, Strain/Indicator: TA100, Metabolic Activation: S-9, Method: STANDARD PLATE): active; positive
- mutagenic call (Test System: AMES SALMONELLA TYPHIMURIUM, Strain/Indicator: TA1535, Metabolic Activation: HAMSTER, LIVER, S-9, AROCLOR 1254 (10%), Method: PREINCUBATION): inactive; negative
- mutagenic call (Test System: AMES SALMONELLA TYPHIMURIUM, Strain/Indicator: TA1535, Metabolic Activation: HAMSTER, LIVER, S-9, AROCLOR 1254, Method: PREINCUBATION): inactive; negative
- mutagenic call (Test System: AMES SALMONELLA TYPHIMURIUM, Strain/Indicator: TA1535, Metabolic Activation: NONE, Method: PREINCUBATION): inactive; negative
- mutagenic call (Test System: AMES SALMONELLA TYPHIMURIUM, Strain/Indicator: TA1535, Metabolic Activation: RAT, LIVER, S-9, AROCLOR 1254 (10%), Method: PREINCUBATION): inactive; negative
- mutagenic call (Test System: AMES SALMONELLA TYPHIMURIUM, Strain/Indicator: TA1535, Metabolic Activation: RAT, LIVER, S-9, AROCLOR 1254, Method: PREINCUBATION): inactive; negative
- mutagenic call (Test System: AMES SALMONELLA TYPHIMURIUM, Strain/Indicator: TA1537, Metabolic Activation: RAT LIVER S-9, PHENOBARBITAL AND BETA-NAPHTHOFLAVONE, Method: PREINCUBATION): inactive; negative
- mutagenic call (Test System: AMES SALMONELLA TYPHIMURIUM, Strain/Indicator: TA1538, Metabolic Activation: HAMSTER, LIVER, S-9, Method: STANDARD PLATE): active; positive
- mutagenic call (Test System: AMES SALMONELLA TYPHIMURIUM, Strain/Indicator: TA1538, Metabolic Activation: RAT, LIVER, S-9, AROCLOR 1254, Method: STANDARD PLATE): active; positive
- mutagenic call (Test System: Ames Salmonella typhimurium, Strain/Indicator: TA98, Metabolic Activation: Rat, Liver, S-9, Sodium phenobarbitone, Method: Preincubation): active; positive, test conducted under both aerobic and anaerobic conditions.
- mutagenic call (Test System: Ames Salmonella typhimurium, Strain/Indicator: TA102, Metabolic Activation: None, Method: Preincubation): inactive; negative
- mutagenic call (Test System: Ames Salmonella typhimurium, Strain/Indicator: TA102, Metabolic Activation: Rat, Liver, S-9, Aroclor 1254, Method: Preincubation): inactive; negative
- mutagenic call (Test System: Ames Salmonella typhimurium, Strain/Indicator: TA1538, Metabolic Activation: Rat, Liver, S-9, Sodium phenobarbitone, Method: Preincubation): active; positive, test conducted under both aerobic and anaerobic conditions.
- mutagenic call (Test System: MOUSE LYMPHOMA, Strain/Indicator: L5178Y (TK+/TK-), Metabolic Activation: NONE, Method: SUSPENSION/PLATE): active; positive
- mutagenic call (Test System: MOUSE LYMPHOMA, Strain/Indicator: L5178Y (TK+/TK-), Metabolic Activation: RAT, LIVER, S-9, AROCLOR 1254, Method: SUSPENSION/PLATE): active; positive

Structure (SMILES): N[C@H](CSSC[C@@H](N)C(=O)O)C(=O)O
- mutagenic call (Test System: AMES SALMONELLA TYPHIMURIUM, Strain/Indicator: TA98, Metabolic Activation: RAT LIVER S-9, CHLOROPHENE, Method: STANDARD PLATE (COMPOUND HEATED AT 250 DEGREES CELSIUS FOR 20 MIN)): active; positive
